From patent US10040802B2, “Thienopyrazine inhibitors of IRAK4 activity” (MERCK SHARP & DOHME CORP., priority 2015, dated 2018)
Structures can show the parent of a compound that is named as a salt.

target: GST tagged IRAK4 (Homo sapiens (Human), UniProt Q9NWZ3); test: IRAK4 Kinase Assay (IMAP fluorescence polarization); format: biochemical; conditions: 0.5 nM GST tagged IRAK4, 100 μM ATP, 30 minutes at 25° C.
Method: The kinase activity of IRAK4 is determined by its ability to catalyze the phosphorylation of a fluorescent polypeptide substrate. The extent of phosphorylation is measured using the IMAP technology (Molecular Devices) where the phosphorylated fluorescent substrate binds to the large M(III)-based nanoparticles which reduces the rotational speed of the substrate and thus increases its fluorescent polarization (FP).
20 μL reaction mixture contains 10 mM TriHCl, pH 7.2, 0.5 nM GST tagged IRAK4 (SignalChem), 100 nM fluorescent peptide substrate (RP7030, Molecular Devices), 100 μM ATP, 1 mM DDT, 1 mM MgCl2, and 0.01% Tween 20. The reaction is initiated by the addition of ATP. After incubation for 30 minutes at 25° C., 60 μL of Progressive IMAP Reagent (Molecular Devices) is added to stop the reaction. Change in RP7030's FP is determined by a FP reader (Analyst HT, LJL BioSystems).

Sequence of GST tagged IRAK4 (Q9NWZ3 whole entry): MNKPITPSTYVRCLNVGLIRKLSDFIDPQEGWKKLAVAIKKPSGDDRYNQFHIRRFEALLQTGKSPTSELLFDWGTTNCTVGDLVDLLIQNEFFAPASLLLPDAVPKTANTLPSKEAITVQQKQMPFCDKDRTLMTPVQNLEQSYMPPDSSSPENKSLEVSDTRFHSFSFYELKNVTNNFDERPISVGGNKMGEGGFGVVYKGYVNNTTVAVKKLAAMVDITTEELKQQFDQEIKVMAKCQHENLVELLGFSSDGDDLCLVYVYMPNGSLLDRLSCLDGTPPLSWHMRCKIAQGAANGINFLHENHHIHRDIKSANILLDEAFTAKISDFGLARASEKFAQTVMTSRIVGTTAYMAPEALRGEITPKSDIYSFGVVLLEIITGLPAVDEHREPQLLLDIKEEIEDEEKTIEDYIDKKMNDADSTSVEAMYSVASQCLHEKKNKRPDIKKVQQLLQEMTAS

| Structure (SMILES) | IC50 [µM] |
| --- | --- |
| N[C@@H]1[C@H](Nc2cnc3scc(C(=O)Nc4ccccc4Cl)c3n2)CCCC1(F)F [Example 101, 2-{[(1R,2R)-2-amino-3,3-difluorocyclohexyl]-amino}-N-(2-chlorophenyl)-thieno[2,3-b]-pyrazine-7-carboxamide trifluoroacetate] | 0.545 |
| Cn1cc(NC(=O)c2csc3ncc(N4CCCNCC4)nc23)c(Cl)n1 [Example 18, N-(3-chloro-1-methyl-1H-pyrazol-4-yl)-2-(1,4-diazepan-1-yl)thieno[2,3-b] pyrazine-7-carboxamide trifluoroacetate] | 0.014 |
| Cn1cc(NC(=O)c2csc3ncc(N[C@@H]4CCCC(F)(F)[C@@H]4N)nc23)c(C(F)(F)F)n1 [Example 5, 2-{[(1R,2R)-2-amino-3,3-difluorocyclohexyl]amino}-N-[1-methyl-3-(trifluoromethyl)-1H-pyrazol-4-yl] thieno[2,3-b] pyrazine-7-carboxamide trifluoroacetate] | 0.332 |
| Cn1cc(NC(=O)c2csc3ncc(N[C@@H]4CCCC[C@@H]4N)nc23)c(C(F)F)n1 [Example 25, 2-{[(1R,2S)-2-aminocyclohexyl]amino}-N-[3-(difluoromethyl)-1-methyl-1H-pyrazol-4-yl]thieno[2,3-b] pyrazine-7-carboxamide trifluoroacetate] | 0.0002 |
| O=C(Nc1cscc1C(F)F)c1csc2ncc(N3C[C@H]4CC[C@@H]3CN4)nc12 (single isomer, unassigned) [Example 59, 2-[(1S,4S)- or (1R,4R)-2,5-diazabicyclo [2.2.2]oct-2-yl]-N-[4-(difluoromethyl)thiophen-3-yl] thieno[2,3-b] pyrazine-7-carboxamide trifluoroacetate] | 0.021 |
| Cn1cc(NC(=O)c2csc3ncc(N4C[C@@H]5CC[C@H]4CN5)nc23)c(Cl)n1 (single isomer, unassigned) [Example 16, N-(3-chloro-1-methyl-1H-pyrazol-4-yl)-2-[(1S,4S)- or (1R,4R)-2,5-diazabicyclo[2.2.2]oct-2-yl]thieno[2,3-b] pyrazine-7-carboxamide trifluoroacetate] | 0.073 |
| N#Cc1cscc1NC(=O)c1csc2ncc(N3C[C@@H]4CC[C@H]3CN4)nc12 (single isomer, unassigned) [Example 65, N-(4-cyanothiophen-3-yl)-2-[(1S,4S)- or (1R,4R)-2,5-diazabicylo[2.2.2]oct-2-yl]thieno[2,3-b] pyrazine-7-carboxamide formate] | 0.31 |
| Cn1cc(NC(=O)c2csc3ncc(N4C[C@H]5CC[C@@H]4CN5)nc23)c(Br)n1 (single isomer, unassigned) [Example 20, N-(3-bromo-1-methyl-1H-pyrazol-4-yl)-2-[(1S,4S)- or (1R,4R)-2,5-diazabicyclo[2.2.2]oct-2-yl]thieno[2,3-b] pyrazine-7-carboxamide trifluoroacetate] | 0.019 |
| N#Cc1ccccc1NC(=O)c1csc2ncc(N3CCCNCC3)nc12 [Example 80, N-(2-Cyanophenyl)-2-(1,4-diazepan-1-yl)thieno[2,3-b]pyrazine-7-carboxamide] | 0.558 |
| N#Cc1cscc1NC(=O)c1csc2ncc(N[C@@H]3CCCC(F)(F)[C@@H]3N)nc12 [Example 79, 2-{[(1R,2R)-2-amino-3,3-difluorocyclohexyl]amino}-N-(4-cyanothiophen-3-yl) thieno[2,3-b] pyrazine-7-carboxamide trifluoroacetate] | 0.371 |
| N[C@H]1CCCC[C@H]1Nc1cnc2scc(C(=O)Nc3cscc3Br)c2n1 [Example 53, 2-{[(1R,2S)-2-amino-cyclohexyl]amino}-N-(4-bromothiophen-3-yl)thieno[2,3-b] pyrazine-7-carboxamide trifluoroacetate] | 0.0006 |
| Cn1cc(NC(=O)c2csc3ncc(N4CCCNCC4)nc23)c(Br)n1 [Example 21, N-(3-bromo-1-methyl-1H-pyrazol-4-yl)-2-(1,4-diazepan-1-yl)thieno[2,3-b] pyrazine-7-carboxamide trifluoroacetate] | 0.015 |
| N[C@H]1CCCC[C@H]1Nc1cnc2scc(C(=O)Nc3ccccc3Br)c2n1 [Example 87, 2-{[(1R,2S)-2-aminocyclohexyl]-amino}-N-(2-bromophenyl)-thieno[2,3-b]-pyrazine-7-carboxamide trifluoroacetate] | 0.002 |
| N#Cc1ccccc1NC(=O)c1csc2ncc(N[C@@H]3CCCC(F)(F)[C@@H]3N)nc12 [Example 105, 2-{[(1R,2R)-2-amino-3,3-difluorocyclohexyl]-amino}-N-(2-cyanophenyl)-thieno[2,3-b]-pyrazine-7-carboxamide trifluoroacetate] | 0.146 |
| O=C(Nc1ccccc1Cl)c1csc2ncc(N3C[C@@H]4CC[C@H]3CN4)nc12 (single isomer, unassigned) [Example 99, N-(2-chlorophenyl)-2-[(1S,4S)- or (1R,4R)-2,5-diazabicyclo-[2.2.2]oct-2-yl]thieno[2,3-b]-pyrazine-7-carboxamide trifluoroacetate] | 1.56 |
| Cn1cc(NC(=O)c2csc3ncc(N[C@@H]4CCCC(F)(F)[C@@H]4N)nc23)c(C#N)n1 [Example 36, 2-{[(1R,2R)-2-amino-3,3-difluorocyclohexyl]amino}-N-(3-cyano-1-methyl-1H-pyrazol-4-yl]thieno[2,3-b] pyrazine-7-carboxamide trifluoroacetate] | 0.05 |
| Cn1cc(NC(=O)c2csc3ncc(N[C@@H]4CCCC[C@@H]4N)nc23)c(Cl)n1 [Example 35, 2-{[(1R,2S)-2-aminocyclohexyl]amino}-N-(3-chloro-1-methyl-1H-pyrazol-4-yl)thieno[2,3-b] pyrazine-7-carboxamide trifluoroacetate] | 0.0003 |
| O=C(Nc1cscc1Cl)c1csc2ncc(N3C[C@H]4CC[C@@H]3CN4)nc12 (single isomer, unassigned) [Example 109, N-(4-chlorothiophen-3-yl)-2-[(1S,4S)- or (1R,4R)-2,5-diazabicyclo-[2.2.2]oct-2-yl]-thieno[2,3-b]-pyrazine-7-carboxamide trifluoroacetate] | 0.104 |
| O=C(Nc1ccccc1C(F)F)c1csc2ncc(N3CCCNCC3)nc12 [Example 103, 2-(1,4-diazepan-1-yl)-N-[2-(difluoromethyl)phenyl]thieno[2,3-b]pyrazine-7-carboxamide trifluoroacetate] | 3.63 |
| Cn1cc(NC(=O)c2csc3ncc(N4CC5CCC(C4)N5)nc23)c(C(F)F)n1 [Example 40, 2-(3,8-diazabicyclo[3.2.1]oct-3-yl)-N-[3-(difluoromethyl)-1-methyl-1H-pyrazol-4-yl]thieno[2,3-b] pyrazine-7-carboxamide trifluoroacetate] | 0.0006 |
| O=C(Nc1cscc1C(F)F)c1csc2ncc(N3CCCNCC3)nc12 [Example 47, 2-(1,4-diazepan-1-yl)-N-[4-(difluoromethyl)thiophen-3-yl] thieno[2,3-b] pyrazine-7-carboxamide trifluoroacetate] | 0.038 |
| N#Cc1sccc1NC(=O)c1csc2ncc(N[C@@H]3CCCC(F)(F)[C@@H]3N)nc12 [Example 78, 2-{[(1R,2R)-2-amino-3,3-difluorocyclohexyl]amino}-N-(2-cyanothiophen-3-yl) thieno[2,3-b] pyrazine-7-carboxamide trifluoroacetate] | 3.66 |
| N#Cc1ccccc1NC(=O)c1csc2ncc(N[C@@H]3CCCNC3)nc12 [Example 85, N-(2-cyanophenyl)-2-[(3R)-piperidin-3-ylamino]-thieno[2,3-b]-pyrazine-7-carboxamide trifluoroacetate] | 0.002 |
